These results are taken from patent US20230036854A1, “HETEROCYCLIC SPIRO-COMPOUNDS AS AM2 RECEPTOR INHIBITORS” (THE UNIVERSITY OF SHEFFIELD, priority 2018, published 2023).

T1 sequence (Q16602 23-461): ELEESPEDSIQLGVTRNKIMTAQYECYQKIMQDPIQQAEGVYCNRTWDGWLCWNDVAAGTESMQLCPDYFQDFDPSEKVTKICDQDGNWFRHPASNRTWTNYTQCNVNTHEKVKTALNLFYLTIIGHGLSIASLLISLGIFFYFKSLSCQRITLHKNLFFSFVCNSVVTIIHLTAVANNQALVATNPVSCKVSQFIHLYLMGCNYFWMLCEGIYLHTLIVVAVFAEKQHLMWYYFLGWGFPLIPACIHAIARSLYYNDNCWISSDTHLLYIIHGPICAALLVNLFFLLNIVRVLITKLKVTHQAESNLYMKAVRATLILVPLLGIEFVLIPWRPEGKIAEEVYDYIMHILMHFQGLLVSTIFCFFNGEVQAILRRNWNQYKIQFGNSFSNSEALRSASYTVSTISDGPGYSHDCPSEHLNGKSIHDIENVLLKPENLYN
T1 sequence (O60896 24-148): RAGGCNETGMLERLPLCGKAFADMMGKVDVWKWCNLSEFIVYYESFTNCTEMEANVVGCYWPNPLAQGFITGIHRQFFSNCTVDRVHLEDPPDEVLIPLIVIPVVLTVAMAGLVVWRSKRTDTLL

This assay has as its target T1, AM2 receptor (1321N1 cells transfected with CALCRL+RAMP3) (Homo sapiens, UniProt O60896+Q16602).
T1 construct: host or cells: 1321N1 cells
The experiment in a line: AM2 receptor inhibition, LANCE cAMP agonist-antagonist competition assay. In kind it is cell-based. The settings on record: inhibition of AM induced cAMP activation, read-out: AM2 D2 protocol: pIC50 (converted). As to the method: Compounds were assessed for their ability to inhibit ligand-induced elevations of cAMP, using the Perkin Elmer LANCE cAMP assay using commercially-available cells expressing a specific receptor of interest using the following general procedure:
Compounds were prepared in dimethyl sulfoxide (DMSO—99.9% pure) (Sigma Aldrich, Cat #: D4540) added to powder stocks to produce a 20 mM solution (100% DMSO) that was sonicated at 37° C. for 10 minutes to fully dissolve the compounds. The 20 mM stocks were diluted further in DMSO to produce a 2 mM solution that was sonicated at 37° C. for 10 minutes. 2 mM stocks were dissolved in assay/stimulation buffer to produce a 400 μM solution that was sonicated at 37° C. for 10 minutes for all cAMP assays. All stocks were stored at −20° C. Then serial dilution (Dilution factor: 10) was performed to achieve the desire experimental concentrations.
Competition assays were performed according to the manufactures instructions using LANCE® TR-FRET cAMP assay kit (Perkin Elmer, Cat #: AD0264). Serial dilutions (3 μl/well) of the molecules were plated in a 384-well OptiPlate (Perkin Elmer, Cat #: 6007299) in duplicates. Appropriate controls (100% stimulation: Forskolin and 0% stimulation: Vehicle control) (6 μl/well) were included in each plate for data normalization. Following the compound addition, 6 μl of G-protein coupled receptor overexpressing cells/Alexa Fluor antibody solution (1:100 dilution) was added in each well at a desired density of 2500cells/well. The overexpressing cell lines were purchased from DiscoveRx, Birmingham, UK. After spinning the plate at 1000 rpm for 1 minute and vortexing briefly, the cells were pre-incubated with the compounds for 30 minutes at room temperature (covered). Then 3 μl of the equivalent peptide ligand (EC50 dose) was added to all the wells except vehicle and forskolin controls. The plate were then spun down at 1000 rpm for 1 minute and once finished they were vortexed briefly and covered. Cells were stimulated in the presence of the ligands for 15 minutes at room temperature. After stimulation 12 μl of detection mix (Europium-Chelate streptavidin/biotinylated cAMP tracer solution) was added to all wells and incubated for 60 minutes at room temperature. The plate was then read on the Enspire multimode Plate reader (Perkin Elmer), at; 320/340 nm excitation and 615/665 nm emission was recorded.
Assay/Stimulation Buffer (30 mL)—pH 7.4 • 28 mL Hank's Balanced salt solution (+MgCl2, +CaCl2)—(Thermo Fisher Cat #:14170112) • 150 μl HEPES (1M)—(Thermo Fisher Cat #:15630080) • 400 μl Stabilizer (DTPA) Purified BSA (7.5%)—(Perkin Elmer, Cat #: CR84-100)
The ability of a compound to inhibit the AM induced cAMP activation in AM2 receptor-expressing cells (1321N1 cells transfected with CALCRL+RAMP3, sourced from DiscoverX catalogue number 95-0169C6) was assessed using the protocol above.
Background: TR-FRET usually uses a lanthanide donor and a delayed reading to cut background.
In the case of `CNCc1ccccc1CN(CC(=O)Nc1ccc2c(c1)C[C@@]1(C2)C(=O)Nc2ncccc21)C(=O)C1(C)CCN(C(=O)c2cccc(C(=O)O)c2)CC1` [Example 33, (R)-3-(4-Methyl-4-((2-((methylamino)methyl)benzyl)(2-oxo-2-((2′-oxo-1,1′,2′,3-tetrahydrospiro[indene-2,3′-pyrrolo[2,3-b]pyridin]-5-yl)amino)ethyl)carbamoyl)piperidine-1-carbonyl)benzoic Acid], the IC50 was 15.1 nM.
In the case of `CNCc1ccccc1CN(CC(=O)Nc1ccc2c(c1)C[C@@]1(C2)C(=O)Nc2ncccc21)C(=O)C1(C)CCN(C(=O)c2ccccc2C(=O)O)CC1` [Example 34, (R)-2-(4-Methyl-4-((2-((methylamino)methyl)benzyl)(2-oxo-2-((2′-oxo-1,1′,2′,3-tetrahydrospiro[indene-2,3′-pyrrolo[2,3-b]pyridin]-5-yl)amino)ethyl)carbamoyl)piperidine-1-carbonyl)benzoic Acid], the IC50 was 70.8 nM.
Then `CNCc1ccccc1CN(CC(=O)Nc1ccc2c(c1)C[C@@]1(C2)C(=O)Nc2ncccc21)C(=O)C1(C)CCN(C(=O)c2ccc(C(=O)O)cc2)CC1` [Example 35, (R)-4-(4-Methyl-4-((2-((methylamino)methyl)benzyl)(2-oxo-2-((2′-oxo-1,1′,2′,3-tetrahydrospiro[indene-2,3′-pyrrolo[2,3-b]pyridin]-5-yl)amino)ethyl)carbamoyl)piperidine-1-carbonyl)benzoic Acid], with 3.8 nM; and `CNCc1ccccc1CN(CC(=O)Nc1ccc2c(c1)C[C@@]1(C2)C(=O)Nc2ncccc21)C(=O)C1(C)CCN(C)CC1` [Example 36, (R)-1,4-Dimethyl-N-(2-((methylamino)methyl)benzyl)-N-(2-oxo-2-((2′-oxo-1,1′,2′,3-tetrahydrospiro[indene-2,3′-pyrrolo[2,3-b]pyridin]-5-yl)amino)ethyl)piperidine-4-carboxamide], with 1.82 nM; and `CNCc1ccccc1CN(CC(=O)Nc1ccc2c(c1)C[C@@]1(C2)C(=O)Nc2ncccc21)C(=O)C1(C)CCN(CC(N)=O)CC1` [Example 37, (R)-1-(2-Amino-2-oxoethyl)-4-methyl-N-(2-((methylamino)methyl)benzyl)-N-(2-oxo-2-((2′-oxo-1,1′,2′,3-tetrahydrospiro[indene-2,3′-pyrrolo[2,3-b]pyridin]-5-yl)amino)ethyl)piperidine-4-carboxamide], with 35.5 nM.
The value for `CNCc1ccccc1CN(CC(=O)Nc1ccc2c(c1)CC1(C2)C(=O)Nc2ncccc21)C(=O)C1(C)CCN(CC(F)(F)F)CC1` (centres unmarked) [Example 38, 4-Methyl-N-(2-((methylamino)methyl)benzyl)-N-(2-oxo-2-((2′-oxo-1,1′,2′,3-tetrahydrospiro[indene-2,3′-pyrrolo[2,3-b]pyridin]-5-yl)amino)ethyl)-1-(2,2,2-trifluoroethyl)piperidine-4-carboxamide] was 10.5 nM; that for `CNCc1ccccc1CN(CC(=O)Nc1ccc2c(c1)C[C@@]1(C2)C(=O)Nc2ncccc21)C(=O)C1(C)CCN(CC(F)(F)F)CC1` [Example 39, (R)-4-Methyl-N-(2-((methylamino)methyl)benzyl)-N-(2-oxo-2-((2′-oxo-1,1′,2′,3-tetrahydrospiro[indene-2,3′-pyrrolo[2,3-b]pyridin]-5-yl)amino)ethyl)-1-(2,2,2-trifluoroethyl)piperidine-4-carboxamide] was 19.5 nM; that for `CNCc1ccccc1CN(CC(=O)Nc1ccc2c(c1)C[C@@]1(C2)C(=O)Nc2ncccc21)C(=O)C1(C)CCN(Cc2ccccc2)CC1` [Example 40, (R)-1-Benzyl-4-methyl-N-(2-((methylamino)methyl)benzyl)-N-(2-oxo-2-((2′-oxo-1,1′,2′,3-tetrahydrospiro[indene-2,3′-pyrrolo[2,3-b]pyridin]-5-yl)amino)ethyl)piperidine-4-carboxamide] was 6.31 nM.
On to `CNCc1ccccc1CN(CC(=O)Nc1ccc2c(c1)C[C@@]1(C2)C(=O)Nc2ncccc21)C(=O)C1(C)CCN(CCOC)CC1` [Example 41, (R)-1-(2-Methoxyethyl)-4-methyl-N-(2-((methylamino)methyl)benzyl)-N-(2-oxo-2-((2′-oxo-1,1′,2′,3-tetrahydrospiro[indene-2,3′-pyrrolo[2,3-b]pyridin]-5-yl)amino)ethyl)piperidine-4-carboxamide], for which the IC50 was 1.1 nM.
For the compound `CNCc1ccccc1CN(CC(=O)Nc1ccc2c(c1)C[C@@]1(C2)C(=O)Nc2ncccc21)C(=O)C1(C)CCN(CCO)CC1` [Example 42, (R)-1-(2-Hydroxyethyl)-4-methyl-N-(2-((methylamino)methyl)benzyl)-N-(2-oxo-2-((2′-oxo-1,1′,2′,3-tetrahydrospiro[indene-2,3′-pyrrolo[2,3-b]pyridin]-5-yl)amino)ethyl)piperidine-4-carboxamide], the IC50 is 6.46 nM.
The value for `CNCc1ccccc1CN(CC(=O)Nc1ccc2c(c1)C[C@@]1(C2)C(=O)Nc2ncccc21)C(=O)C1(C)CCN(CC(=O)O)CC1` [Example 43, (R)-2-(4-Methyl-4-((2-((methylamino)methyl)benzyl)(2-oxo-2-((2′-oxo-1,1′,2′,3-tetrahydrospiro[indene-2,3′-pyrrolo[2,3-b]pyridin]-5-yl)amino)ethyl)carbamoyl)piperidin-1-yl)acetic Acid] was 135 nM.
The value for `CNCc1ccccc1CN(CC(=O)Nc1ccc2c(c1)C[C@@]1(C2)C(=O)Nc2ncccc21)C(=O)C1(C)CCN(CC(=O)N2CCNCC2)CC1` [Example 44, (R)-4-Methyl-N-(2-((methylamino)methyl)benzyl)-N-(2-oxo-2-((2′-oxo-1,1′,2′,3-tetrahydrospiro[indene-2,3′-pyrrolo[2,3-b]pyridin]-5-yl)amino)ethyl)-1-(2-oxo-2-(piperazin-1-yl)ethyl)piperidine-4-carboxamide] was 10.7 nM; that for `CNCc1ccccc1CN(CC(=O)Nc1ccc2c(c1)CC1(C2)C(=O)Nc2ncccc21)C(=O)C1(C)CCN(CC(=O)O)CC1` (centres unmarked) [Example 45, 2-(4-Methyl-4-((2-((methylamino)methyl)benzyl)(2-oxo-2-((2′-oxo-1,1′,2′,3-tetrahydrospiro[indene-2,3′-pyrrolo[2,3-b]pyridin]-5-yl)amino)ethyl)carbamoyl)piperidin-1-yl)acetic Acid] was 2.34 nM.
The value for `CNCc1ccccc1CN(CC(=O)Nc1ccc2c(c1)C[C@@]1(C2)C(=O)Nc2ncccc21)C(=O)C1(C)CCN(Cc2ccc(C(=O)O)cc2)CC1` [Example 46, (R)-4-[[4-Methyl-4-[[2-(methylaminomethyl)phenyl]methyl-[2-oxo-2-[[(3R)-2-oxospiro[1H-pyrrolo[2,3-b]pyridine-3,2′-indane]-5′-yl]amino]ethyl]carbamoyl]-1-piperidyl]methyl]benzoic Acid] was 25.7 nM.
In the case of `CNCc1ccccc1CN(CC(=O)Nc1ccc2c(c1)C[C@@]1(C2)C(=O)Nc2ncccc21)C(=O)C1(C)CCN(Cc2cccc(C(=O)O)c2)CC1` [Example 47, (R)-3-((4-Methyl-4-((2-((methylamino)methyl)benzyl)(2-oxo-2-((2′-oxo-1,1′,2′,3-tetrahydrospiro[indene-2,3′-pyrrolo[2,3-b]pyridin]-5-yl)amino)ethyl)carbamoyl)piperidin-1-yl)methyl)benzoic Acid], the IC50 is 5.01 nM.
Then `CNCc1ccccc1CN(CC(=O)Nc1ccc2c(c1)C[C@@]1(C2)C(=O)Nc2ncccc21)C(=O)C1(C)CCN(CC2CCNCC2)CC1` [Example 49, (R)-4-Methyl-N-(2-((methylamino)methyl)benzyl)-N-(2-oxo-2-((2′-oxo-1,1′,2′,3-tetrahydrospiro[indene-2,3′-pyrrolo[2,3-b]pyridin]-5-yl)amino)ethyl)-1-(piperidin-4-ylmethyl)piperidine-4-carboxamide], with 1.55 nM; and `CNCc1ccccc1CN(CC(=O)Nc1ccc2c(c1)C[C@@]1(C2)C(=O)Nc2ncccc21)C(=O)C1(C)CCN(Cc2ccncc2)CC1` [Example 50, (R)-4-Methyl-N-(2-((methylamino)methyl)benzyl)-N-(2-oxo-2-((2′-oxo-1,1′,2′,3-tetrahydrospiro[indene-2,3′-pyrrolo[2,3-b]pyridin]-5-yl)amino)ethyl)-1-(pyridin-4-ylmethyl)piperidine-4-carboxamide], with 2.19 nM.
